This experiment addresses T1, GPR43 (Homo sapiens, UniProt O15552).
T1 construct: expressed in transfected cells
T1 sequence (O15552 1-330): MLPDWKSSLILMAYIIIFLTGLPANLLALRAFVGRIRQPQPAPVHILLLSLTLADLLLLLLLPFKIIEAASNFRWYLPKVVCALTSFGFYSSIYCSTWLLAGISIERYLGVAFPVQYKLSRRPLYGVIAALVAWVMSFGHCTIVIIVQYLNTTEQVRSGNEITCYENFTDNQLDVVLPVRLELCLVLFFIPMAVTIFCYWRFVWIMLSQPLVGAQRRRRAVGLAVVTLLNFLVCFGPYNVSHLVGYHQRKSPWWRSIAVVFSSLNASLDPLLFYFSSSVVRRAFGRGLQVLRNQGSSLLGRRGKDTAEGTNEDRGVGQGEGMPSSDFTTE
As to the kind of experiment: Calcium mobilization assay with probenecid. Type of experiment: cell-based. The settings on record: GPR43 stably expressing cells; triggered with sodium acetate at EC80; 2.5 mM probenecid; read-out: GPR43 assay with probenicid IC50. How it is done: The following assay can be used for determination of GPR43 activation. The assay measures intracellular calcium release induced by activation of GPR43. On day 1, GPR43 stably expressing cells were detached with mild trypsinization (Trypsin, 0.25% with EDTA 4Na, 5× diluted in PBS) centrifuged at 1000 rpm for 5 min and resuspended at 6.000 cells/25 […] medium (DMEM supplemented with 10% FBS, 10 μg/mL puromycin and 1% Pen/Strep). The cells were distributed in poly-D-lysine coated 384 well plates (black with clear bottom, 25 μL/well) and incubated overnight at 37° C. 10% CO2.
On day 2, 25 μL of a fluorescent Ca^2+ indicator (Calcium 4 assay; Molecular Devices) supplemented with 2.5 mM probenecid was added on top of the cells and incubated for 2 h at 37° C. Subsequently, compounds at increasing concentration (10 μL/well) were added to the plate and incubated for 15 min at 37° C.
To measure agonist activity of the compounds, compound was added to the well and the Ca^2+-flux was measured simultaneously to the […] of compound.
For orientation: IC50 means the concentration that gives 50% inhibition. For `COc1ccc(CNS(=O)(=O)CCCN(Cc2ccc(Cl)cc2)C(=O)C2(C)CCN2C(=O)Cc2cc(C)cc(C)c2)c(OC)c1` (stereo not drawn) [Compound 168, 1-[2-(3,5-Dimethyl-phenyl)-acetyl]-2-methyl-azetidine-2-carboxylic acid (4-chloro-benzyl)-[3-(2,4-dimethoxy-benzylsulfamoyl)-propyl]-amide], the half-maximal inhibitory concentration (IC50) is > 1000 nM. Regarding `Cc1cc(C)cc(CC(=O)N2CCC2(C)C(=O)N(CC(=O)NC2CC2)Cc2ccc(Cl)cc2)c1` (stereo not drawn) [Compound 81, 1-[2-(3,5-Dimethyl-phenyl)-acetyl]-2-methyl-azetidine-2-carboxylic acid (4-chloro-benzyl)-cyclopropylcarbamoylmethyl-amide], the IC50 is 101 to 500 nM. For `CC1(C(=O)N(CCCC(=O)O)Cc2ccc(Cl)cc2)CCN1C(=O)c1ccc2sccc2c1` (stereo not drawn) [Compound 135, 4-[[1-(Benzo[b]thiophene-5-carbonyl)-2-methyl-azetidine-2-carbonyl]-(4-chloro-benzyl)-amino]-butyric acid] the value was 501 to 1000 nM; for `CNS(=O)(=O)CCCN(Cc1ccc(Cl)cc1)C(=O)C1(C)CCN1C(=O)Cc1csc2ccccc12` (stereo not drawn) [Compound 189, 1-(2-Benzo[b]thiophen-3-yl-acetyl)-2-methyl-azetidine-2-carboxylic acid (4-chloro-benzyl)-(3-methylsulfamoyl-propyl)-amide], 0.01 to 100 nM; for `CCOC(=O)CCCN(Cc1ccc2cn[nH]c2c1)C(=O)C1(C)CCN1C(=O)Cc1coc2ccccc12` (stereo not drawn) [Compound 152, 4-[[1-(2-Benzofuran-3-yl-acetyl)-2-methyl-azetidine-2-carbonyl]-(1H-indazol-6-ylmethyl)-amino]-butyric acid ethyl ester], 101 to 500 nM. Turning to `CN(Cc1ccc(Cl)cc1)C(=O)C1(C)CCN1C(=O)Cc1ccc(F)c2ccccc12` (stereo not drawn) [Compound 106, 1-[2-(4-Fluoro-naphthalen-1-yl)-acetyl]-2-methyl-azetidine-2-carboxylic acid (4-chloro-benzyl)-methyl-amide], the IC50 was > 1000 nM.

Turning to `Cc1cc(C)cc(CC(=O)N2CCC2(C)C(=O)N(CCCC(=O)O)Cc2cccc(Cl)c2)c1` (stereo not drawn) [Compound 161, 4-((3-Chloro-benzyl)-{1-[2-(3,5-dimethyl-phenyl)-acetyl]-2-methyl-azetidine-2-carbonyl}-amino)-butyric acid], the IC50 is > 1000 nM. Then `Cc1cc(C)cc(CC(=O)N2CCC2(C)C(=O)N(CCS(=O)(=O)N2CCOCC2)Cc2ccc(Cl)cc2)c1` (stereo not drawn) [Compound 179, 1-[2-(3,5-Dimethyl-phenyl)-acetyl]-2-methyl-azetidine-2-carboxylic acid (4-chloro-benzyl)-[2-(morpholine-4-sulfonyl)-ethyl]-amide], with > 1000 nM. For `CCOC(=O)CCCN(Cc1ccc(C(F)(F)F)cc1)C(=O)C1(C)CCN1C(=O)Cc1coc2ccccc12` (stereo not drawn) [Compound 167, 4-[[1-(2-Benzofuran-3-yl-acetyl)-2-methyl-azetidine-2-carbonyl]-(4-trifluoromethyl-benzyl)-amino]-butyric acid ethyl ester] the value was > 1000 nM. Then `CN(Cc1ccc(Cl)cc1)C(=O)C1(C)CCN1C(=O)Cc1cc(F)cc(F)c1` (stereo not drawn) [Compound 19, 1-[2-(3,5-Difluoro-phenyl)-acetyl]-2-methyl-azetidine-2-carboxylic acid (4-chloro-benzyl)-methyl-amide], with > 1000 nM. As to `Cc1ccc(OC(=O)N2CCC2(C)C(=O)N(CCCC(=O)O)Cc2ccc(Cl)cc2)c(C)c1` (stereo not drawn) [Compound 213, 4-(N-(4-chlorobenzyl)-1-((2,4-dimethylphenoxy)carbonyl)-2-methylazetidine-2-carboxamido)butanoic acid], the IC50 was > 1000 nM. For `CC1(C(=O)N(CCCC(=O)O)Cc2cccc(Cl)c2)CCN1C(=O)Cc1csc2ccccc12` (stereo not drawn) [Compound 148, 4-[[1-(2-Benzo[b]thiophen-3-yl-acetyl)-2-methyl-azetidine-2-carbonyl]-(3-chloro-benzyl)-amino]-butyric acid] the value was 501 to 1000 nM; for `CC1(C(=O)N(CCCC(=O)O)Cc2ccc(Cl)cc2)CCN1C(=O)Oc1ccccc1F` (stereo not drawn) [Compound 210, 4-(N-(4-chlorobenzyl)-1-((2-fluorophenoxy)carbonyl)-2-methylazetidine-2-carboxamido)butanoic acid], > 1000 nM. Then `CC1(C(=O)N(CCC(=O)O)Cc2ccc3cn[nH]c3c2)CCN1C(=O)c1csc2ccccc12` (stereo not drawn) [Compound 188, 3-[[1-(Benzo[b]thiophene-3-carbonyl)-2-methyl-azetidine-2-carbonyl]-(1H-indazol-6-ylmethyl)-amino]-propionic acid], with 501 to 1000 nM; and `COC(=O)[C@@H](C)N(Cc1ccc(Cl)cc1)C(=O)C1(C)CCN1C(=O)Cc1cc(C)cc(C)c1` (stereo partly drawn) [Compound 73, (R)-2-((4-Chloro-benzyl)-{1-[2-(3,5-dimethyl-phenyl)-acetyl]-2-methyl-azetidine-2-carbonyl}-amino)-propionic acid methyl ester], with 501 to 1000 nM; and `Cc1cc(C)cc(CC(=O)N2CCC2(C)C(=O)N(CCCC(=O)N2CCN(C)CC2)Cc2ccc(Cl)cc2)c1` (stereo not drawn) [Compound 124, 1-[2-(3,5-Dimethyl-phenyl)-acetyl]-2-methyl-azetidine-2-carboxylic acid (4-chloro-benzyl)-[4-(4-methyl-piperazin-1-yl)-4-oxo-butyl]-amide], with 501 to 1000 nM. Consider `C[C@@H](c1cccc(Cl)c1)N(CCCC(=O)NS(C)(=O)=O)C(=O)[C@@]1(C)CCN1C(=O)c1csc2ccccc12` [Compound 231, (R)-1-(benzo[b]thiophene-3-carbonyl)-N-((S)-1-(3-chlorophenyl)ethyl)-2-methyl-N-(4-(methylsulfonamido)-4-oxobutyl)azetidine-2-carboxamide], for which the IC50 lay within 0.01 to 100 nM. As to `CC1(C(=O)N(CCCC(=O)O)Cc2ccc(Cl)cc2)CCN1C(=O)n1ccc2ccccc21` (stereo not drawn) [Compound 237, 4-(N-(4-chlorobenzyl)-1-(1H-indole-1-carbonyl)-2-methylazetidine-2-carboxamido)butanoic acid], the IC50 is > 1000 nM. Then `CC1(C(=O)N(CCCC(=O)O)c2cc(Cl)ccn2)CCN1C(=O)c1csc2ccccc12` (stereo not drawn) [Compound 252, 4-(1-(benzo[b]thiophene-3-carbonyl)-N-(4-chloropyridin-2-yl)-2-methylazetidine-2-carboxamido)butanoic acid], with 501 to 1000 nM; and `CC1(C(=O)N(CCCC(=O)O)Cc2ccc(Cl)cc2)CCN1C(=O)Oc1ccccc1Cl` (stereo not drawn) [Compound 202, 2-[(3-Carboxy-propyl)-(4-chloro-benzyl)-carbamoyl]-2-methyl-azetidine-1-carboxylic acid 2-chloro-phenyl ester], with > 1000 nM. For `CC1(C(=O)N(CCCS(N)(=O)=O)Cc2ccc(Cl)cc2)CCN1C(=O)Cc1csc2ccccc12` (stereo not drawn) [Compound 181, 1-(2-Benzo[b]thiophen-3-yl-acetyl)-2-methyl-azetidine-2-carboxylic acid (4-chloro-benzyl)-(3-sulfamoyl-propyl)-amide], the IC50 fell in the range of 0.01 to 100 nM. Then `CSc1ccc(OC(=O)N2CCC2(C)C(=O)N(CCCC(=O)O)Cc2ccc(Cl)cc2)cc1` (stereo not drawn) [Compound 227, 4-(N-(4-chlorobenzyl)-2-methyl-1-((4-(methylthio)phenoxy)carbonyl)azetidine-2-carboxamido)butanoic acid], with 501 to 1000 nM; and `O=C(O)CCCN(Cc1cccc(Cl)c1)C(=O)C1(Cc2ccc(Cl)cc2)CCN1C(=O)c1csc2ccccc12` (stereo not drawn) [Compound 225, 4-(1-(benzo[b]thiophene-3-carbonyl)-N-(3-chlorobenzyl)-2-(4-chlorobenzyl)azetidine-2-carboxamido)butanoic acid], with 501 to 1000 nM.

With `Cc1cc(C)cc(CC(=O)N2CCC2(C)C(=O)N(CCCS(N)(=O)=O)Cc2ccc(Cl)cc2)c1` (stereo not drawn) [Compound 171, 1-[2-(3,5-Dimethyl-phenyl)-acetyl]-2-methyl-azetidine-2-carboxylic acid (4-chloro-benzyl)-(3-sulfamoyl-propyl)-amide], the IC50 was 101 to 500 nM. Take `CN(Cc1ccc(Cl)cc1)C(=O)C1(C)CCN1C(=O)c1ccc2sccc2c1` (stereo not drawn) [Compound 112, 1-(Benzo[b]thiophene-5-carbonyl)-2-methyl-azetidine-2-carboxylic acid (4-chloro-benzyl) methyl-amide]: the half-inhibitory concentration (IC50) lay in the range of 501 to 1000 nM.

As for `CCOC(=O)CCCN(Cc1ccc(C(F)(F)F)cc1)C(=O)C1(C)CCN1C(=O)Cc1cc(C)cc(C)c1` (stereo not drawn) [Compound 165, 4-[{1-[2-(3,5-Dimethyl-phenyl)-acetyl]-2-methyl-azetidine-2-carbonyl}-(4-trifluoromethyl-benzyl)-amino]-butyric acid ethyl ester], the IC50 is 501 to 1000 nM. For the compound `Cc1cc(C)cc(CC(=O)N2CCC2(C)C(=O)N(Cc2ccc(Cl)cc2)Cc2nnc(O)o2)c1` (stereo not drawn) [Compound 111, 1-[2-(3,5-Dimethyl-phenyl)-acetyl]-2-methyl-azetidine-2-carboxylic acid (4-chloro-benzyl)-(5-hydroxy-[1,3,4]oxadiazol-2-ylmethyl)-amide], the IC50 was 501 to 1000 nM.

(Values after patent US8759334B2, “Compounds useful for the treatment of metabolic and inflammatory diseases” (Galapagos NV, priority 2011, dated 2014).)
